From the NIST ThermoML archive (doi:10.1021/je050343i) come the findings set out here.

A short description of this data set: activity coefficient (dimensionless); of the first substance listed, at infinite dilution; xn = mol fraction of the nth substance listed. Particulars: Liquid, Chromatography, x1 = 0.

Numbers after ± are expanded uncertainties.

Take `CC(F)F` [1,1-difluoroethane] + C=C(C)CCO: the activity coefficient came to 4.94 ± 0.34 (249.95 K); 4.53 ± 0.31 (269.95 K); 4.12 ± 0.28 (289.9 K); 3.74 ± 0.25 (309.99 K); 3.5 ± 0.24 (330 K).

As for `CC(F)F` [1,1-difluoroethane] + C=CC(C)(C)O, the activity coefficient stood at 4.68 ± 0.32 (250 K); 3.99 ± 0.27 (269.96 K); 3.39 ± 0.23 (289.99 K); 2.89 ± 0.2 (309.99 K); 2.47 ± 0.17 (330 K).

Consider `C=CC=C` [1,3-butadiene] + C=C(C)CCO, for which the activity coefficient (249.92 K) turned out to be 2.76 ± 0.19; the activity coefficient (270.04 K) was determined as 2.69 ± 0.18; the activity coefficient (289.99 K) came out at 2.65 ± 0.18; the activity coefficient (309.99 K) is 2.56 ± 0.17; the activity coefficient (330 K) came to 2.45 ± 0.17.

Regarding `C=CC=C` [1,3-butadiene] + C=CC(C)(C)O, the activity coefficient amounted to 2.43 ± 0.17 (249.98 K); 2.36 ± 0.16 (269.95 K); 2.22 ± 0.15 (289.99 K); 2.05 ± 0.14 (309.99 K); 1.88 ± 0.13 (330 K).

Regarding `C=CCC` [1-butene] + C=C(C)CCO, the activity coefficient by setting is: (249.92 K) 3.57 ± 0.24; (270.04 K) 3.47 ± 0.24; (289.99 K) 3.4 ± 0.23; (309.99 K) 3.28 ± 0.22; (330 K) 3.13 ± 0.21.

With `C=CCC` [1-butene] + C=CC(C)(C)O, the activity coefficient runs as follows: (249.98 K) 2.74 ± 0.19; (269.95 K) 2.65 ± 0.18; (289.99 K) 2.52 ± 0.17; (309.99 K) 2.37 ± 0.16; (330 K) 2.2 ± 0.15.

With `CC(C)C` [2-methylpropane] + C=C(C)CCO, the activity coefficient runs as follows: (249.92 K) 5.27 ± 0.36; (270.04 K) 4.98 ± 0.34; (289.99 K) 4.73 ± 0.32; (309.99 K) 4.54 ± 0.31; (330 K) 4.29 ± 0.29.

`CC(C)C` [2-methylpropane] + C=CC(C)(C)O: the activity coefficient is 3.56 ± 0.24 (249.98 K); 3.42 ± 0.23 (269.95 K); 3.27 ± 0.22 (289.99 K); 3.06 ± 0.21 (309.99 K); 2.83 ± 0.19 (330 K).

Take `C=C(C)C` [2-methylpropene] + C=C(C)CCO: the activity coefficient reads like this: (249.92 K) 3.49 ± 0.24; (270.04 K) 3.41 ± 0.23; (289.99 K) 3.32 ± 0.23; (309.99 K) 3.21 ± 0.22; (330 K) 3.04 ± 0.21.

`C=C(C)C` [2-methylpropene] + C=CC(C)(C)O: the activity coefficient reads like this: (249.98 K) 2.72 ± 0.19; (269.95 K) 2.61 ± 0.18; (289.99 K) 2.47 ± 0.17; (309.99 K) 2.31 ± 0.16; (330 K) 2.15 ± 0.15.

In the case of `C/C=C/C` [(E)-2-butene] + C=C(C)CCO, the activity coefficient is 3.55 ± 0.24 (249.92 K); 3.42 ± 0.23 (270.04 K); 3.35 ± 0.23 (289.99 K); 3.27 ± 0.22 (309.99 K); 3.12 ± 0.21 (330 K).

With `C/C=C/C` [(E)-2-butene] + C=CC(C)(C)O, the activity coefficient runs as follows: (249.98 K) 2.73 ± 0.19; (269.95 K) 2.62 ± 0.18; (289.99 K) 2.51 ± 0.17; (309.99 K) 2.35 ± 0.16; (330 K) 2.2 ± 0.15.

Regarding `C/C=C\C` [(Z)-2-butene] + C=C(C)CCO, the activity coefficient was 3.26 ± 0.22 (249.95 K); 3.2 ± 0.22 (269.95 K); 3.08 ± 0.21 (289.9 K); 2.9 ± 0.2 (309.99 K); 2.77 ± 0.19 (330 K).

Take `C/C=C\C` [(Z)-2-butene] + C=CC(C)(C)O: the activity coefficient (250 K) came out at 2.55 ± 0.17; the activity coefficient (269.96 K) is 2.48 ± 0.17; the activity coefficient (289.99 K) was determined as 2.36 ± 0.16; the activity coefficient (309.99 K) came to 2.23 ± 0.15; the activity coefficient (330 K) was 2.05 ± 0.14.

As to `CCCC` [butane] + C=C(C)CCO, the activity coefficient runs as follows: (249.92 K) 4.89 ± 0.33; (270.04 K) 4.61 ± 0.31; (289.99 K) 4.41 ± 0.3; (309.99 K) 4.18 ± 0.28; (330 K) 3.99 ± 0.27.

For `CCCC` [butane] + C=CC(C)(C)O, the activity coefficient came out at 3.3 ± 0.22 (249.98 K); 3.22 ± 0.22 (269.95 K); 3.08 ± 0.21 (289.99 K); 2.87 ± 0.2 (309.99 K); 2.65 ± 0.18 (330 K).

As to `CCCl` [chloroethane] + C=C(C)CCO, the activity coefficient reads like this: (249.94 K) 2.49 ± 0.17; (269.95 K) 2.35 ± 0.16; (289.9 K) 2.32 ± 0.16; (309.99 K) 2.23 ± 0.15; (330 K) 1.99 ± 0.14.

Regarding `CCCl` [chloroethane] + C=CC(C)(C)O, the activity coefficient (250.01 K) stood at 2.28 ± 0.16; the activity coefficient (269.96 K) was found to be 2.16 ± 0.15; the activity coefficient (289.99 K) turned out to be 1.96 ± 0.13; the activity coefficient (309.99 K) amounted to 1.69 ± 0.11; the activity coefficient (330 K) is 1.56 ± 0.1.

`COC` [dimethyl ether] + C=C(C)CCO: the activity coefficient by setting is: (249.95 K) 1.28 ± 0.08; (269.95 K) 1.23 ± 0.08; (289.9 K) 1.2 ± 0.08; (309.99 K) 1.17 ± 0.07; (330 K) 1.15 ± 0.07.

Regarding `COC` [dimethyl ether] + C=CC(C)(C)O, the activity coefficient is, setting by setting: (250.01 K) 0.62 ± 0.04; (269.96 K) 0.67 ± 0.05; (289.99 K) 0.7 ± 0.05; (309.99 K) 0.72 ± 0.05; (330 K) 0.74 ± 0.05.

Turning to `CCC` [propane] + C=C(C)CCO, the activity coefficient reads like this: (249.92 K) 4.36 ± 0.3; (270.04 K) 4.19 ± 0.29; (289.99 K) 4.1 ± 0.28; (309.99 K) 3.86 ± 0.26; (330 K) 3.7 ± 0.25.

Consider `CCC` [propane] + C=CC(C)(C)O, for which the activity coefficient reads like this: (249.98 K) 3.08 ± 0.21; (269.95 K) 2.97 ± 0.2; (289.99 K) 2.86 ± 0.19; (309.99 K) 2.7 ± 0.18; (330 K) 2.54 ± 0.17.

As for `C=CC` [propene] + C=C(C)CCO, the activity coefficient runs as follows: (249.92 K) 3.07 ± 0.21; (270.04 K) 3.04 ± 0.21; (289.99 K) 2.99 ± 0.2; (309.99 K) 2.92 ± 0.2; (330 K) 2.8 ± 0.19.

For `C=CC` [propene] + C=CC(C)(C)O, the activity coefficient was found to be 2.46 ± 0.17 (249.98 K); 2.38 ± 0.16 (269.95 K); 2.3 ± 0.16 (289.99 K); 2.17 ± 0.15 (309.99 K); 2.05 ± 0.14 (330 K).
